pEC50: −log10 of the molar value. Entries after “also recorded” stand apart in the source; their conditions may differ.
Target: GPR35 (Homo sapiens, UniProt Q9HC97)
Test: PathHunter β-Arrestin assay of GPR35 activation (DiscoverX)
Format: cell-based
Conditions: for activation of GPR35 (in words): single HMOs, highest concentration tested 10 mM; for pEC50: cell based β-arrestin recruitment, 3x dilutions from 10 mM, duplicate
Procedure: Six human milk oligosaccharides (LNnT, LNT, 2-FL, diFL, 6′ SL and 3-SL) were sreened for their ability to activate the GPR35 receptor in an in vitro assay.
The GPR35 cell line was expanded from frozen stocks and cultured according to standard procedures. Cells were seeded in a total volume of 20 μL into white walled, 384-well microplates and incubated at 37° C. for the appropriate time prior to testing. All testing was done in duplicate.
HMO samples were shipped to DiscoverX as concentrated stocks in Phosphate Buffered saline. On the test day, a 5× compound working intermediate was prepared in PBS. Five μL of 5× sample was added to cells and incubated at room temperature for 3 to 5 hours.
Assay signal was generated through a single addition of 12.5 μL (50% v/v) of PathHunter Detection reagent cocktail, followed by one-hour incubation at room temperature. Microplates were read following signal generation with a PerkinElmer Envision™ instrument for chemiluminescent signal detection.
Zaprinast (which is known to be an activator of GPR35) was used as positive control.
Percentage activity was calculated using the following formula: % Activity=100%×(mean RLU of test sample−mean RLU of vehicle control)/(mean MAX control ligand−mean RLU of vehicle control).
Dose-responses were generated by iterative 3× dilutions of the highest concentration tested (10 mM).
The samples were diluted in 1×PBS (pH ˜7) at 5× concentrations and sent to DiscoverX. The GPR35 activation assay was performed as described in Example 2.

Sequence of GPR35 (Q9HC97 whole entry): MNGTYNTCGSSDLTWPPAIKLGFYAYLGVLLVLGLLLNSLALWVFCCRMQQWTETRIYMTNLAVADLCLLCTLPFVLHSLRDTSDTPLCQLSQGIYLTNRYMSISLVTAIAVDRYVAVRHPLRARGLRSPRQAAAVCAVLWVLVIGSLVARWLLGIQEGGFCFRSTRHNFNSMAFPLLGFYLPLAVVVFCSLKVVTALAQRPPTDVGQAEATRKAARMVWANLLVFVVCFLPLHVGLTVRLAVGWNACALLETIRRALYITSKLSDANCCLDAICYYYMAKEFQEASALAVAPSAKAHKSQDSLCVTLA
Sequence of GPR35 (P32121 whole entry partner): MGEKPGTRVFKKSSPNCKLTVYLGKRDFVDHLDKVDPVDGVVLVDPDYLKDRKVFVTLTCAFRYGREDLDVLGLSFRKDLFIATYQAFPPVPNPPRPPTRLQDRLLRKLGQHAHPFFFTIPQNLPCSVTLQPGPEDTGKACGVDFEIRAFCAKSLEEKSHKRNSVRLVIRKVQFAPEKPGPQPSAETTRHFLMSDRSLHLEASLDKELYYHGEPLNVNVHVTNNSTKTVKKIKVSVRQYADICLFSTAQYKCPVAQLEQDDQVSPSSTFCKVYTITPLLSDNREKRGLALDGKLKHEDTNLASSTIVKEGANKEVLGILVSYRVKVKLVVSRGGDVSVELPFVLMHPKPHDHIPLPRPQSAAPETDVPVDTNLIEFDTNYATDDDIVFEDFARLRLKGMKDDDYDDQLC

| activation of GPR35 (in words) | pEC50 | activation of GPR35 (in words) (listed as difucosyllactose) | activation of GPR35 (in words) (listed as 3-SL) | SMILES |
| --- | --- | --- | --- | --- |
|  | 2.35 |  |  | CC(=O)N[C@H]1[C@H](O[C@H]2[C@@H](O)[C@@H](CO)O[C@@H](O[C@H]3[C@H](O)[C@@H](O)C(O)O[C@@H]3CO)[C@@H]2O)O[C@H](CO)[C@@H](O)[C@@H]1O[C@@H]1O[C@H](CO)[C@H](O)[C@H](O)[C@H]1O (stereo partly shown) [LNT, lacto-N-tetraose] |
| No activation |  | do not activate |  | C[C@@H]1O[C@@H](O[C@H]2[C@H](O[C@H]3[C@H](O[C@@H]4O[C@@H](C)[C@@H](O)[C@@H](O)[C@@H]4O)[C@@H](O)C(O)O[C@@H]3CO)O[C@H](CO)[C@H](O)[C@@H]2O)[C@@H](O)[C@H](O)[C@@H]1O (stereo partly shown) [diFL, difucosyllactose] |
|  | 2.19 |  |  | CC(=O)N[C@H]1[C@H]([C@H](O)[C@H](O)CO)O[C@@](OC[C@H]2O[C@@H](O[C@H]3[C@H](O)[C@@H](O)[C@H](O)O[C@@H]3CO)[C@H](O)[C@@H](O)[C@H]2O)(C(=O)O)C[C@@H]1O [6′SL, 6′-sialyllactose] |
| No activation |  |  | do not activate | CC(=O)N[C@H]1[C@H]([C@H](O)[C@H](O)CO)O[C@@](O[C@H]2[C@@H](O)[C@@H](CO)O[C@@H](O[C@H]3[C@H](O)[C@@H](O)C(O)O[C@@H]3CO)[C@@H]2O)(C(=O)O)C[C@@H]1O (stereo partly shown) [3SL, 3′-sialyllactose] |

| SMILES | activation of GPR35 (in words) | pEC50 | activation of GPR35 (in words) (listed as difucosyllactose) | activation of GPR35 (in words) (listed as 3-SL) |
| --- | --- | --- | --- | --- |
| CC(=O)N[C@H]1[C@H](O[C@H]2[C@@H](O)[C@@H](CO)O[C@@H](O[C@H]3[C@H](O)[C@@H](O)C(O)O[C@@H]3CO)[C@@H]2O)O[C@H](CO)[C@@H](O[C@@H]2O[C@H](CO)[C@H](O)[C@H](O)[C@H]2O)[C@@H]1O (mixture of isomers) [LNnT, lacto-N-neotetraose] | No activation; also recorded: do not activate |  |  |  |

Reference: patent US12109220B2, “Compositions for use in the reduction of nociception in children” (SOCIETE DES PRODUITS NESTLE S.A., priority 2017, dated 2024)
